The results in this text go back to patent US10662138B2, “Herbicidal propynyl-phenyl compounds” (Syngenta Participations AG, priority 2014, dated 2020).

What all share (assay type): in vivo
The test system of one experiment is Echinochloa crus-galli. As to the kind of experiment: Glasshouse assay for herbicidal activity, post-emergence, ECHCG. To be noted: Echinochloa crus-galli, 312 h, visual 13 days after application, 100%=total damage, read-out: Percentage phytotoxicity ECHCG. As for the experimental part:
(§1) Seeds of a variety of test plant species were sown in standard soil ** in pots. After cultivation for one day (pre-emergence) or after 8 days cultivation (post-emergence) under controlled conditions in a glasshouse (at 24/16° C., day/night; 14 hours light; 65% humidity), the plants were sprayed with an aqueous spray solution derived from the formulation of the technical active ingredient (the test herbicide) in acetone/water (50:50) solution containing 0.5% Tween 20 (polyoxyethylene sorbitan monolaurate, CAS Reg. No. 9005-64-5). The test plants were then grown on under controlled conditions in a glasshouse (at 24/16° C., day/night; 14 hours light; 65% humidity) and watered twice daily. 13 Days after application of the test herbicide, for pre- and post-emergence, the test was evaluated visually for percentage phytotoxicity to each plant (where 100%=total damage to plant; 0%=no damage to plant). Generally, each test herbicide is only tested on 1 plant per plant species for each application rate tested and for each application timing. The “standard soil” in Biological Example 1 is usually a “sand” or “sandy loam” type of soil. Biological Example 1—Post-Emergence Application—Herbicidal Activity Results (Percentage Phytotoxicity) Dicotyledonous weeds: ABUTH=Abutilon theophrasti; AMARE=Amaranthus retroflexus. Grassy monocotyledonous weeds: SETFA=Setaria faberi; ALOMY=Alopecurus myosuroides; ECHCG=Echinochloa crus-galli; ZEAMX=Zea mays (corn, maize, e.g. volunteer corn).

Experiment [1] concerns Zea mays (corn, maize, e.g. volunteer corn). As to the kind of experiment: Glasshouse assay for herbicidal activity, post-emergence, ZEAMX. Conditions: Zea mays, 312 h, visual 13 days after application, 100%=total damage, read-out: Percentage phytotoxicity ZEAMX. How it is done: as §1
For another experiment, the system named is Abutilon theophrasti. As to the kind of experiment: Glasshouse assay for herbicidal activity, post-emergence, ABUTH. Conditions: Abutilon theophrasti, 312 h, visual 13 days after application, 100%=total damage, read-out: Percentage phytotoxicity ABUTH. How it is done: as §1
The next experiment concerns Setaria faberi. Nature of the experiment: Glasshouse assay for herbicidal activity, post-emergence, SETFA. To be noted: Setaria faberi, 312 h, visual 13 days after application, 100%=total damage, read-out: Percentage phytotoxicity SETFA. As for the experimental part: as §1
In a further experiment the test system is Alopecurus myosuroides. Nature of the experiment: Glasshouse assay for herbicidal activity, post-emergence, ALOMY. To be noted: Alopecurus myosuroides, 312 h, visual 13 days after application, 100%=total damage, read-out: Percentage phytotoxicity ALOMY. As for the experimental part:
as §1

In the next experiment the test system is Amaranthus retroflexus. As to the kind of experiment: Glasshouse assay for herbicidal activity, post-emergence, AMARE. Conditions: Amaranthus retroflexus, 312 h, visual 13 days after application, 100%=total damage, read-out: Percentage phytotoxicity AMARE. How it is done: as §1

As to `CC#Cc1ccc(C2C(=O)CC3(CCOCC3)CC2=O)c(OC)c1` [Compound A12], the pest or weed control at 30 g/ha in the experiment on Echinochloa crus-galli is 100%; in experiment [1], 100%; with Abutilon theophrasti it was 0%; with Setaria faberi, 100%; in the experiment with Alopecurus myosuroides it was 90%; in the experiment with Amaranthus retroflexus, 0%. In addition, the pest or weed control at 250 g/ha with Echinochloa crus-galli was 100%; in experiment [1], 100%; in the experiment on Abutilon theophrasti it was 20%; in the experiment on Setaria faberi, 100%; in the experiment on Alopecurus myosuroides, 100%; with Amaranthus retroflexus it was 30%.

Take `CC#Cc1ccc(C2C(=O)C3CCC(C3)C2=O)c(OCCOC)c1` (stereo not drawn) [Compound A15, 3-[2-(2-methoxyethoxy)-4-prop-1-ynyl-phenyl]bicyclo[3.2.1]octane-2,4-dione]: the pest or weed control at 30 g/ha with Echinochloa crus-galli was 10%; in experiment [1], 40%; in the experiment with Abutilon theophrasti, 0%; with Setaria faberi, 50%; in the experiment with Alopecurus myosuroides, 10%; in the experiment with Amaranthus retroflexus, 0%. Also, the pest or weed control at 250 g/ha in the experiment with Echinochloa crus-galli worked out at 40%; in experiment [1], 80%; with Abutilon theophrasti, 0%; with Setaria faberi, 80%; in the experiment with Alopecurus myosuroides, 20%; in the experiment on Amaranthus retroflexus it was 0%.

As for `CC#Cc1ccc(C2C(=O)C3CCC(C3)C2=O)c(CCC)c1` (stereo not drawn) [Compound A16, 3-(2-propyl-4-prop-1-ynyl-phenyl)bicyclo[3.2.1]octane-2,4-dione], the pest or weed control at 250 g/ha in the experiment on Echinochloa crus-galli came out at 100%; in experiment [1], 100%; in the experiment with Abutilon theophrasti, 0%; in the experiment with Setaria faberi it was 100%; in the experiment with Alopecurus myosuroides it was 100%; in the experiment with Amaranthus retroflexus it was 0%.

Take `CC#Cc1ccc(C2C(=O)C3CCC(C3)C2=O)c(CC)c1` (stereo not drawn) [Compound A17]: the pest or weed control at 250 g/ha came to 100% in the experiment with Echinochloa crus-galli; 100% in experiment [1]; 50% in the experiment on Abutilon theophrasti; 90% in the experiment on Setaria faberi; 100% in the experiment with Alopecurus myosuroides; 0% in the experiment with Amaranthus retroflexus.

Consider `CC#Cc1ccc(C2=C(OC(C)=O)C3CCC(C3)C2=O)c(OC)c1` (stereo not drawn) [Compound P1, [3-(2-methoxy-4-prop-1-ynyl-phenyl)-4-oxo-2-bicyclo[3.2.1]oct-2-enyl] acetate], for which the pest or weed control at 250 g/ha was determined as 100% with Echinochloa crus-galli; 100% in experiment [1]; 10% with Abutilon theophrasti; 90% in the experiment with Setaria faberi; 100% with Alopecurus myosuroides; 20% in the experiment with Amaranthus retroflexus.

In the case of `C#CCOC1=C(c2ccc(C#CC)cc2OC)C(=O)C2CCC1C2` (stereo not drawn) [Compound P2, 3-(2-methoxy-4-prop-1-ynyl-phenyl)-2-prop-2-ynoxy-bicyclo[3.2.1]oct-2-en-4-one], the pest or weed control at 250 g/ha with Echinochloa crus-galli is 90%; in experiment [1], 100%; in the experiment on Abutilon theophrasti, 0%; in the experiment on Setaria faberi, 80%; with Alopecurus myosuroides, 70%; in the experiment with Amaranthus retroflexus, 0%.

For `C=CCOC1=C(c2ccc(C#CC)cc2OC)C(=O)C2CCC1C2` (stereo not drawn) [Compound P3], the pest or weed control at 250 g/ha stood at 100% in the experiment with Echinochloa crus-galli; 100% in experiment [1]; 0% in the experiment on Abutilon theophrasti; 90% with Setaria faberi; 70% with Alopecurus myosuroides; 10% in the experiment on Amaranthus retroflexus.

Regarding `CC#Cc1ccc(C2=C(OCOC)C3CCC(C3)C2=O)c(OC)c1` (stereo not drawn) [Compound P4], the pest or weed control at 250 g/ha in the experiment with Echinochloa crus-galli turned out to be 100%; in experiment [1], 100%; in the experiment with Abutilon theophrasti, 10%; in the experiment on Setaria faberi, 100%; in the experiment with Alopecurus myosuroides, 100%; in the experiment on Amaranthus retroflexus, 0%.

`CC#Cc1ccc(C2=C(OC(=O)c3ccc(F)cc3)C3CCC(C3)C2=O)c(OC)c1` (stereo not drawn) [Compound P5]: the pest or weed control at 250 g/ha in the experiment on Echinochloa crus-galli was determined as 100%; in experiment [1], 100%; in the experiment on Abutilon theophrasti it was 50%; with Setaria faberi, 90%; with Alopecurus myosuroides, 90%; in the experiment with Amaranthus retroflexus, 30%.

`CC#Cc1ccc(C2=C(OC(=O)CC)C3CCC(C3)C2=O)c(OC)c1` (stereo not drawn) [Compound P6]: the pest or weed control at 250 g/ha in the experiment on Echinochloa crus-galli is 100%; in experiment [1], 100%; in the experiment on Abutilon theophrasti, 60%; with Setaria faberi, 90%; in the experiment on Alopecurus myosuroides, 90%; in the experiment with Amaranthus retroflexus it was 40%.

For `CC#Cc1ccc(C2=C(OC(=O)OC)C3CCC(C3)C2=O)c(OC)c1` (stereo not drawn) [Compound P7], the pest or weed control at 250 g/ha in the experiment with Echinochloa crus-galli amounted to 100%; in experiment [1], 100%; in the experiment with Abutilon theophrasti, 40%; in the experiment with Setaria faberi, 90%; in the experiment on Alopecurus myosuroides it was 90%; in the experiment on Amaranthus retroflexus, 30%.

On to `CC#Cc1ccc(C2=C(OC(=O)OCC)C3CCC(C3)C2=O)c(OC)c1` (stereo not drawn) [Compound P8], for which the pest or weed control at 250 g/ha in the experiment with Echinochloa crus-galli was found to be 100%; in experiment [1] it was 100%; in the experiment with Abutilon theophrasti, 60%; in the experiment on Setaria faberi, 90%; in the experiment with Alopecurus myosuroides, 90%; with Amaranthus retroflexus, 20%.

With `CC#Cc1ccc(C2=C(OC(=O)C(C)C)C3CCC(C3)C2=O)c(OC)c1` (stereo not drawn) [Compound P10], the pest or weed control at 250 g/ha in the experiment on Echinochloa crus-galli was found to be 100%; in experiment [1], 100%; in the experiment with Abutilon theophrasti, 70%; in the experiment on Setaria faberi, 90%; in the experiment on Alopecurus myosuroides, 90%; in the experiment with Amaranthus retroflexus, 40%.

`CC#Cc1ccc(C2=C(OC(=O)C(C)(C)C)C3CCC(C3)C2=O)c(OC)c1` (stereo not drawn) [Compound P11]: the pest or weed control at 250 g/ha with Echinochloa crus-galli is 100%; in experiment [1], 100%; with Abutilon theophrasti, 70%; in the experiment with Setaria faberi, 100%; in the experiment on Alopecurus myosuroides, 90%; in the experiment on Amaranthus retroflexus it was 20%.

`CC#Cc1ccc(C2=C(OC(=O)c3ccccc3)C3CCC(C3)C2=O)c(OC)c1` (stereo not drawn) [Compound P12]: the pest or weed control at 250 g/ha in the experiment with Echinochloa crus-galli worked out at 100%; in experiment [1], 100%; in the experiment with Abutilon theophrasti, 70%; with Setaria faberi, 90%; with Alopecurus myosuroides it was 100%; with Amaranthus retroflexus, 20%.

On to `CC#Cc1ccc(C2=C(OC(=O)Sc3ccccc3)C3CCC(C3)C2=O)c(OC)c1` (stereo not drawn) [Compound P13], for which the pest or weed control at 250 g/ha amounted to 100% with Echinochloa crus-galli; 100% in experiment [1]; 40% with Abutilon theophrasti; 100% in the experiment on Setaria faberi; 90% in the experiment with Alopecurus myosuroides; 60% in the experiment with Amaranthus retroflexus.

On to `CC#Cc1ccc(C2=C(OC(=O)SCC)C3CCC(C3)C2=O)c(OC)c1` (stereo not drawn) [Compound P14], for which the pest or weed control at 250 g/ha in the experiment with Echinochloa crus-galli was found to be 100%; in experiment [1], 100%; in the experiment with Abutilon theophrasti it was 70%; with Setaria faberi it was 100%; in the experiment with Alopecurus myosuroides it was 90%; with Amaranthus retroflexus, 20%.
